Like-named read-outs stand apart in the source and are kept apart here. Strand notation (5' to 3'): a small letter for the sugar, then the base; units joined by * are phosphorothioate-linked, units joined directly phosphodiester-linked; [ ] holds rarer units or linkages, { } end groups; capitals alone tell only the bases. d = 2'-deoxy (DNA)
What was measured:
p53-MDM2 complex = test: Co-immunoprecipitation of p53-MDM2 complex in JAR cells; assay type: cell-based, human
Description: Protein lysates from JAR cells treated with antisense oligonucleotides as described in Example 1 were immunoprecipitated with anti-p53 monoclonal antibody Pab421 (FIGS. 4A and 4B) (Harlow et al. J. Virol. 39:861-869 (1981)) or with polyclonal antibody 2A10 (panel C) according to the methods described in Example 1. The gel was then transferred onto an Immobilon P membrane (Millipore, Bedford, Mass.) to detect MDM2 co-precipitates.

tumor cell lines [1] = test: Cell death / apoptosis in other cell lines; assay type: cell-based, human; conditions: H1299 cells (lack p53)
JAR cells [2] = conditions: cited from earlier work
JAR cells [3] = test: Induction of apoptosis / cell death in JAR cells; assay type: cell-based, human; conditions: 400 nM
Method: JAR cells (ATCC) were grown in DMEM medium supplemented with 1% FBS according to standard cell culture techniques. Cells were then treated for 30 hours with growth medium containing 400 nM of either antisense oligonucleotide AS5 (SEQ ID NO:28) complementary to a portion of MDM2-encoding RNA or control oligonucleotide M4 (SEQ ID NO:5), and 7 μg/ml lipofectin (Gibco BRL Paisley, UK). Treated cells were then photographed using a phase contrast microscope.
JAR cells were treated for 24 hours as described in Example 6. Floating cells were harvested and chromosomal DNA was extracted according to standard techniques (Liu et al., Cell 86:147-157 (1996)). Purified DNA was then analyzed by agarose gel electrophoresis on a 2% agarose gel. Following electrophoresis the gel was stained with 0.5 μg/ml ethidium bromide.

MDM2 [4] = test: MDM2 protein level by immunoprecipitation/Western blot in oligonucleotide-treated cells; assay type: cell-based, human; conditions: JAR cells, 18 h, Lipofectin 7 μg/ml, Western blot (FIG. 2A)
p21/WAF1 [5] = test: p21/WAF1 induction by Western blot in JAR cells; assay type: cell-based, human; conditions: 200 nM, relative to control-treated cells
Method: To assess the ability of the oligonucleotides of the invention to induce the expression of a p53-inducible gene, p21/WAF1 levels were examined in oligonucleotide-treated JAR cells. Total protein was purified from control oligonucleotide-treated cells and from antisense oligonucleotide-treated cells (200 nM oligonucleotide AS5) as described in Example 1. Equal amounts of purified total protein were immunoprecipitated and analyzed by Western blotting carried out for MDM2 detection using a polyclonal rabbit anti-human p21/WAF1 serum. Following hybridization, the blots were exposed to XAR film (Eastman Kodak, Rochester, N.Y.) and the autoradiograms are quantitated by phosphoroimaging.

MDM2 [6] = conditions: JAR and SJSA cells, 100-400 nM, Lipofectin; cited from earlier work
[7] = system: JAR-TK-luc and H1299-BP100-luc cells; test: Control luciferase reporters in JAR-TK-luc and H1299-BP100-luc cells; assay type: cell-based, human
Method: JAR cells stably transfected with a luciferase reporter driven by the thymidine kinase gene promoter (JAR-TK-luc) and H1299 cells containing no p53 that had been stably transfected with BP100-luciferase (H1299-BP1000-luc) were also tested. […] Similar results were also observed using AS5 in osteosarcoma SJSA cells (data not shown).

p53 [8] = test: Nuclear p53 level by immunofluorescence staining with Pab1801; assay type: cell-based, human; conditions: MCF-7 cells, 200 nM, 20 hr
p21/WAF1 [9] = conditions: optimal concentration 200 nM; cited from earlier work
p53 [10] = test: p53-responsive BP100-luciferase reporter in JAR cells; assay type: cell-based, human
tumor cell lines [11] = conditions: H1299 cells that lack p53; cited from earlier work
MDM2 mRNA = test: Northern blot of MDM2 mRNA in JAR cells; assay type: cell-based, human; conditions: 200 nM, 18 h
Method: JAR cells were treated with 200 nM of antisense oligonucleotide AS5 (SEQ ID NO:28) with no oligonucleotide, with 200 nM of control oligonucleotide M4 (SEQ ID NO:5). After 18 hours, the treated cells were harvested and RNA was purified and quantitated according to standard methods. (see e.g., Current Protocols in Molecular Biology, John Wiley & Sons Inc. (1995)). Twenty μg of total RNA were run on a 1% agarose denaturing gel. MDM2 mRNA was detected by hybridization using an EcoRI-NcoI fragment specific for the human MDM2 cDNA between nucleotides 310-1633. The filter was then stripped and reprobed with a 1.2 kb fragment, which is a full length human GAPDH cDNA to normalize values on the basis of loading variations, according to standard methods.

**Q.** With “AS5: anti-MDM2 antisense PS-oligo SEQ ID NO:28, 5′-GATCACTCCCACCTTCAAGG-3′ (DNA dG*dA*dT*dC*dA*dC*dT*dC*dC*dC*dA*dC*dC*dT*dT*dC*dA*dA*dG*dG)” as the substance, how does the “total p53 levels” value (p53-MDM2 complex; JAR cells (FIG. 4A)) read?
**A.** did not change

**Q.** And the “amount of MDM2 co-precipitated with p53” value (p53-MDM2 complex; JAR cells (FIG. 4B))?
**A.** reduced

**Q.** What about the apoptosis (tumor cell lines [1]) of the same substance?
**A.** did not cause visible apoptosis

**Q.** And the apoptosis (JAR cells [2])?
**A.** significant increase in the levels of apoptosis

**Q.** And the “chromosomal DNA cleavage in floating cells” value (JAR cells [3]; 24 h, agarose gel)?
**A.** nucleosomal-sized low molecular weight bands characteristic of apoptosis

**Q.** What about the “cell death / apoptosis morphology” value (JAR cells [3]; 30 h, Lipofectin) of the same substance?
**A.** induced significant cell death

**Q.** What about the “inhibition of MDM2 expression” value (MDM2 [4]) of the same substance?
**A.** 3-5 fold

**Q.** What about the “induction of p21/WAF1” value (p21/WAF1 [5]) of the same substance?
**A.** up to 6.6 fold

**Q.** What about the “decrease of MDM2 protein levels” value (MDM2 [6]) of the same substance?
**A.** 3-5 fold

**Q.** And the “activation of reporter gene in control cells” value [7]?
**A.** did not activate the reporter gene

**Q.** And the “nuclear p53 staining” value (p53 [8])?
**A.** similar, but weaker

**Q.** What about the “induction of p21 expression” value (p21/WAF1 [9]) of the same substance?
**A.** up to 6.6 fold

**Q.** And the “induction of p53 activity among the initial antisense oligonucleotides tested” value (p53 [10])?
**A.** most effective

**Q.** And the “activation of p53-responsive reporter expression” value (p53 [10]; JAR BP100-luc, 200 nM, 24 h)?
**A.** 7 fold

**Q.** And the “activation of the p53 reporter” value (p53 [10]; JAR BP100-luc, 48 h, AS5 200 nM, CPT alone, AS5 alone or co-incubation)?
**A.** 17 fold

**Q.** And the apoptosis (tumor cell lines [11])?
**A.** did not cause visible apoptosis

**Q.** And the “increase of MDM2 mRNA” value (MDM2 mRNA)?
**A.** 2.5 fold

**Q.** And the “molecular weight of the MDM2 mRNA band” value (MDM2 mRNA)?
**A.** slight decrease in the molecular weight of the MDM2 mRNA band

Source: US6946447B2, “MDM2-specific antisense oligonucleotides” (Hybridon, Inc., priority 1997, dated 2005)
